Common to all, as to assay type: biochemical
In assay [1] the test system is α-isomaltosyl-transferring enzyme from Arthrobacter globiformis A19. Description: Action on saccharides (substrates, TLC). Details: key: −: there was found no substrate change before and after the enzymatic reaction; +: there were found both the reduction of substrate and the formation of cyclotetrasaccharide after the enzymatic reaction. Conditions: partially purified enzyme, 2 units/g substrate, 2% (w/v) substrate, 30° C., pH 6.0, 24 hours. An excerpt:
(§1) To examine the saccharides in the supernatant, they were separated from the supernatant by silica gel thin-layer chromatography (abbreviated as “TLC” hereinafter) using, as a developer, a mixture solution of n-butanol, pyridine, and water (=6:4:1), and, as a thin-layer plate, “[…] 60”, an aluminum plate (20×20 cm) for TLC commercialized by […]. The coloration of both the separated total sugars by the sulfuric acid-methanol method and the reducing saccharides by the diphenylamine-aniline method detected a non-reducing saccharide at a position with an Rf value of about 0.31, which was positive on the former detection method but negative on the latter detection method.
(§2) It was tested whether saccharides can be used as substrates for the α-isomaltosyl-transferring enzyme. For the purpose, a solution of maltose, maltotriose, maltotetraose, maltopentaose, maltohexaose, maltoheptaose, isomaltose, isomaltotriose, panose, isomaltosylmaltose, isopanose, α,α-trehalose, kojibiose, nigerose, α,β-trehalose, cellobiose, gentibiose, maltitol, maltotriitol, lactose, sucrose, α-cyclodextrin, β-cyclodextrin, γ-cyclodextrin, soluble starch, pullulan, or dextran was prepared. To each of the above solutions was added two units/g substrate of a purified specimen of either α-isomaltosyl-transferring enzyme from Bacillus globisporus C9 obtained by the method in Experiment 4, Bacillus globisporus C11 obtained by the method in Experiment 7, Bacillus globisporus N75 obtained by the method in Experiment 11, or Arthrobacter ramosus S1 obtained by the method in Experiment 15, or a partially purified α-isomaltosyl-transferring enzyme from Arthrobacter globiformis A19 obtained by the method in Experiment 15. The resulting each solution was adjusted to give a substrate concentration of 2% (w/v) and incubated at 30° C. and pH 6.0 for 24 hours. The enzyme solutions before and after the enzymatic reactions were respectively analyzed on TLC as disclosed in Experiment 1 to confirm whether the enzymes acted on these substrates.

For assay [2], the system named is α-isomaltosyl-transferring enzyme from Bacillus globisporus C11. Description: Action on saccharides (substrates, TLC). Details: key: −: there was found no substrate change before and after the enzymatic reaction; +: there were found both the reduction of substrate and the formation of cyclotetrasaccharide after the enzymatic reaction. Conditions: 2 units/g substrate, 2% (w/v) substrate, 30° C., pH 6.0, 24 hours.
Text: as §1, §2

The test system of assay [3] is α-isomaltosyl-transferring enzyme from Bacillus globisporus C9. Description: Action on saccharides (substrates, TLC). Details: key: −: there was found no substrate change before and after the enzymatic reaction; +: there were found both the reduction of substrate and the formation of cyclotetrasaccharide after the enzymatic reaction. The settings on record: 2 units/g substrate, 2% (w/v) substrate, 30° C., pH 6.0, 24 hours.
Text: as §1, §2

The test system of assay [4] is α-isomaltosyl-transferring enzyme from Arthrobacter ramosus S1. Description: Action on saccharides (substrates, TLC). Conditions: 2 units/g substrate, 2% (w/v) substrate, 30° C., pH 6.0, 24 hours. Details: key: −: there was found no substrate change before and after the enzymatic reaction; +: there were found both the reduction of substrate and the formation of cyclotetrasaccharide after the enzymatic reaction.
Text: as §1, §2

For assay [5], the system named is α-isomaltosyl-transferring enzyme from Bacillus globisporus N75. Nature of the assay: Action on saccharides (substrates, TLC). Details: key: −: there was found no substrate change before and after the enzymatic reaction; +: there were found both the reduction of substrate and the formation of cyclotetrasaccharide after the enzymatic reaction. Conditions: 2 units/g substrate, 2% (w/v) substrate, 30° C., pH 6.0, 24 hours.
Text: as §1, §2

For assay [6], the system named is α-isomaltosyl-transferring enzyme from Arthrobacter globiformis A19. Nature of the assay: Specificity to transferring acceptor. The settings on record: partially purified enzyme, panose as saccharide donor, 10 units/g substrate, 3.2% (w/v), 30° C., pH 6.0, 24 hours. A digest of the protocol:
(§3)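 Scoring is presence or absence of a transfer product, detected by HPLC for tri- or larger saccharides and by GLC for smaller ones. Reactions: 3.2% (w/v) saccharide with panose as donor in equal amount, 10 units/g substrate of purified or partially purified enzyme, pH 6.0, 30 °C, 24 h.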

Assay [7] has as its system α-isomaltosyl-transferring enzyme from Bacillus globisporus C11. Nature of the assay: Specificity to transferring acceptor. The settings on record: panose as saccharide donor, 10 units/g substrate, 3.2% (w/v), 30° C., pH 6.0, 24 hours. A digest of the protocol:
as §3

The test system of assay [8] is α-isomaltosyl-transferring enzyme from Bacillus globisporus C9. Nature of the assay: Specificity to transferring acceptor. Conditions: panose as saccharide donor, 10 units/g substrate, 3.2% (w/v), 30° C., pH 6.0, 24 hours. In outline:
as §3

Assay [9] has as its system α-isomaltosyl-transferring enzyme from Arthrobacter ramosus S1. Description: Specificity to transferring acceptor. The settings on record: panose as saccharide donor, 10 units/g substrate, 3.2% (w/v), 30° C., pH 6.0, 24 hours. In outline: as §3
In assay [10] the test system is α-isomaltosyl-transferring enzyme from Bacillus globisporus N75. Nature of the assay: Specificity to transferring acceptor. The settings on record: panose as saccharide donor, 10 units/g substrate, 3.2% (w/v), 30° C., pH 6.0, 24 hours. In outline:
as §3

With `OC[C@H]1O[C@H](O[C@H]2[C@H](O)[C@@H](O)[C@@H](OC[C@H]3OC(O)[C@H](O)[C@@H](O)[C@@H]3O)O[C@@H]2CO)[C@H](O)[C@@H](O)[C@@H]1O` (stereo partly shown) [Isopanose, isopanose], in assay [1], the “Enzymatic action for forming cyclotetrasaccharide, Enzyme of Strain A19” value (“Enzymatic action … of Strain A19” below) is “−”. Besides, the “Enzymatic action for forming cyclotetrasaccharide, Enzyme of Strain C11” value (from here on “Enzymatic action … of Strain C11”) in [2] is “−”. Besides, in [3], the “Enzymatic action for forming cyclotetrasaccharide, Enzyme of Strain C9” value (shortened to “Enzymatic action … of Strain C9”) was “−”. Further, the “Enzymatic action for forming cyclotetrasaccharide, Enzyme of Strain S1” value (shortened to “Enzymatic action … of Strain S1”) in assay [4] is reported as “−”. Further, the “Enzymatic action for forming cyclotetrasaccharide, Enzyme of Strain N75” value (shortened to “Enzymatic action … of Strain N75”) in [5] is listed as “−”. The “Product of transferring reaction, Enzyme of Stain A19” value (“Product … of Stain A19” below) in assay [6] is “+ (a saccharide-transferred product was formed in an amount of over one percent but below 10% to the total sugars)”. Moreover, the “Product of transferring reaction, Enzyme of Strain C11” value (“Product … of Strain C11” below) in [7] is reported as “+ (a saccharide-transferred product was formed in an amount of over one percent but below 10% to the total sugars)”. Also, in [8], the “Product of transferring reaction, Enzyme of Strain C9” value (“Product … of Strain C9” for short) is recorded as “+ (a saccharide-transferred product was formed in an amount of over one percent but below 10% to the total sugars)”. Also, in [9], the “Product of transferring reaction, Enzyme of Strain S1” value (“Product … of Strain S1” for short) is recorded as “+ (a saccharide-transferred product was formed in an amount of over one percent but below 10% to the total sugars)”. Further, the “Product of transferring reaction, Enzyme of Strain N75” value (“Product … of Strain N75” for short) in [10] is recorded as “+ (a saccharide-transferred product was formed in an amount of over one percent but below 10% to the total sugars)”.
For the compound `OC[C@H]1O[C@H](O[C@H]2C(O)O[C@H](CO)[C@@H](O)[C@@H]2O)[C@H](O)[C@@H](O)[C@@H]1O` (stereo partly shown) [Kojibiose, kojibiose], in assay [1], the “Enzymatic action … of Strain A19” value is reported as “−”. For the same compound, the “Enzymatic action … of Strain C11” value in [2] is given as “−”. In addition, the “Enzymatic action … of Strain C9” value in assay [3] was “−”. The “Enzymatic action … of Strain S1” value in assay [4] is “−”. Moreover, the “Enzymatic action … of Strain N75” value in assay [5] is “−”. Further, in assay [6], the “Product … of Stain A19” value is reported as “+ (a saccharide-transferred product was formed in an amount of over one percent but below 10% to the total sugars)”. Moreover, the “Product … of Strain C11” value in [7] is listed as “+ (a saccharide-transferred product was formed in an amount of over one percent but below 10% to the total sugars)”. The “Product … of Strain C9” value in [8] is reported as “+ (a saccharide-transferred product was formed in an amount of over one percent but below 10% to the total sugars)”. The “Product … of Strain S1” value in assay [9] was “+ (a saccharide-transferred product was formed in an amount of over one percent but below 10% to the total sugars)”. In addition, in assay [10], the “Product … of Strain N75” value is listed as “+ (a saccharide-transferred product was formed in an amount of over one percent but below 10% to the total sugars)”.
On to `OC[C@H]1O[C@@H](O[C@H]2[C@H](O)[C@@H](O)C(O)O[C@@H]2CO)[C@H](O)[C@@H](O)[C@H]1O` (stereo partly shown) [Lactose, lactose], for which the “Enzymatic action … of Strain A19” value in assay [1] is “−”. Besides, in assay [2], the “Enzymatic action … of Strain C11” value is on record as “−”. In assay [3], the “Enzymatic action … of Strain C9” value is recorded as “−”. Moreover, the “Enzymatic action … of Strain S1” value in assay [4] is on record as “−”. Also, the “Enzymatic action … of Strain N75” value in assay [5] is “−”. Also, in [6], the “Product … of Stain A19” value was “+ (a saccharide-transferred product was formed in an amount of over one percent but below 10% to the total sugars)”. In assay [7], the “Product … of Strain C11” value is recorded as “+ (a saccharide-transferred product was formed in an amount of over one percent but below 10% to the total sugars)”. Also, the “Product … of Strain C9” value in assay [8] is “+ (a saccharide-transferred product was formed in an amount of over one percent but below 10% to the total sugars)”. Also, the “Product … of Strain S1” value in assay [9] is “+ (a saccharide-transferred product was formed in an amount of over one percent but below 10% to the total sugars)”. Moreover, in assay [10], the “Product … of Strain N75” value was “+ (a saccharide-transferred product was formed in an amount of over one percent but below 10% to the total sugars)”.
On to `OC[C@H]1O[C@H](O[C@H]2[C@H](O)[C@@H](O)[C@H](O)O[C@@H]2CO)[C@H](O)[C@@H](O)[C@@H]1O` [Maltose, maltose], for which, in assay [1], the “Enzymatic action … of Strain A19” value is recorded as “−”. In addition, the “Enzymatic action … of Strain C11” value in assay [2] was “−”. In addition, the “Enzymatic action … of Strain C9” value in assay [3] was “−”. The “Enzymatic action … of Strain S1” value in assay [4] is “−”. In addition, the “Enzymatic action … of Strain N75” value in assay [5] is “−”. The “Product … of Stain A19” value in [6] is listed as “+ (a saccharide-transferred product was formed in an amount of over one percent but below 10% to the total sugars)”. Also, in [7], the “Product … of Strain C11” value is “+ (a saccharide-transferred product was formed in an amount of over one percent but below 10% to the total sugars)”. Besides, the “Product … of Strain C9” value in [8] is listed as “+ (a saccharide-transferred product was formed in an amount of over one percent but below 10% to the total sugars)”. The “Product … of Strain S1” value in assay [9] is “+ (a saccharide-transferred product was formed in an amount of over one percent but below 10% to the total sugars)”. Further, in assay [10], the “Product … of Strain N75” value is listed as “+ (a saccharide-transferred product was formed in an amount of over one percent but below 10% to the total sugars)”.
